Here are results for 27 compounds from US8362000B2, “Azetidinyl diamides as monoacylglycerol lipase inhibitors” (Janssen Pharmaceutica NV, priority 2009, dated 2013).

One test concerns the target T1, mutant MGL (Homo sapiens, UniProt Q99685, L169S/L176S).
T1 sequence (Q99685 1-303 L169S/L176S): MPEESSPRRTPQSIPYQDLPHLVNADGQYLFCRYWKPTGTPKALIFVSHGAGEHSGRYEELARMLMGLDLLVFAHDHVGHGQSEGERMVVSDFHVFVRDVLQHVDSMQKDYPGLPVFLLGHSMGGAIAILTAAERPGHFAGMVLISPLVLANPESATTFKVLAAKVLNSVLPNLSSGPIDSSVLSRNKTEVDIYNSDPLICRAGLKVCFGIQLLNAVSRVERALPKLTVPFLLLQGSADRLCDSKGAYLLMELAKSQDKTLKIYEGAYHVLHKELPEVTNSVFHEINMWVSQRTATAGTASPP
The experiment in a line: MGL ThermoFluor assay - mutant. The format is binding.

Test [1] has as its target T2, purified wild type MGL (wt-MGLL 6H-11-313) (Homo sapiens, UniProt Q99685).
T2 sequence (Q99685 1-303): T1 sequence (Q99685 1-303 L169S/L176S) with S169L, S176L

The next test deals with T3, MGL (Rattus norvegicus, UniProt Q8R431).
T3 construct: one g rat brain was homogenized using a Polytron homogenizer; from tissue; host or cells: rat brain homogenate
T3 sequence (Q8R431 1-303): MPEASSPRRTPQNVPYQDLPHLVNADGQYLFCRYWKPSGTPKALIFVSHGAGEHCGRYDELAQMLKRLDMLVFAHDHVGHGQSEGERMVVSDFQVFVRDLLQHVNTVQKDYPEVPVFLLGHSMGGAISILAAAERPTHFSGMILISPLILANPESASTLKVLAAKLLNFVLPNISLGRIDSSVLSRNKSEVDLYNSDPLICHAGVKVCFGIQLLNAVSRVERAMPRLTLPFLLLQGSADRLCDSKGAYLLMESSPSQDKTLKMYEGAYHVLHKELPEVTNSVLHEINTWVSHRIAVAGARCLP
The experiment in a line: 2-AG accumulation assay in rat brain homogenate. It is filed as biochemical. The conditions noted are these: rat brain homogenate, 2-AG accumulation as percent of vehicle; for 2-AG accumulation, % of vehicle control at 1 µM: compound 1 μM, read-out: Rat Brain 2AG % VehCntrl (%) @ 1 μM; for 2-AG accumulation, % of vehicle control at 10 µM: compound 10 μM, read-out: Rat Brain 2AG % VehCntrl (%) @ 10 μM.

Numbering of substitutions follows the chain as printed. Read-outs that look alike come from different tables or passages of the source.

Take `O=C(c1ccc2c(ccn2-c2ccc(C(F)(F)F)cc2)c1)N1CC(N2CCN(C(=O)c3ccns3)CC2)C1` [Cpd 1097, 5-({3-[4-(Isothiazol-5-ylcarbonyl)piperazin-1-yl]azetidin-1-yl}carbonyl)-1-[4-(trifluoromethyl)phenyl]-1H-indole]: the Kd on mutant MGL (ThermoFluor concentration-response, read-out: MGL mutant ThermoFluor Kd) turned out to be 32 nM. In test [1], the IC50 (in general, the midpoint of a concentration-inhibition curve) turned out to be 12 nM. Also, the 2-AG accumulation, % of vehicle control at 1 µM at MGL worked out at 422%.
In the case of `Cc1cccc(-n2ccc3cc(C(=O)N4CC(N5CCN(C(=O)c6nccs6)CC5)C4)ccc32)n1` [Cpd 1126, 1-(6-Methylpyridin-2-yl)-5-({3-[4-(1,3-thiazol-2-ylcarbonyl)piperazin-1-yl]azetidin-1-yl}carbonyl)-1H-indole], at mutant MGL (ThermoFluor, compound concentration measured by qNMR, read-out: MGL mutant ThermoFluor qKd (using qNMR conc.)), the Kd came to 8 nM. Besides, in test [1], the IC50 came to 19 nM. The 2-AG accumulation, % of vehicle control at 1 µM at MGL came to 850%.
On to `O=C(c1ccc(-c2ccc(C(F)(F)F)s2)cc1)N1CCN(C2CN(C(=O)c3cscn3)C2)CC1` [Cpd 1136], for which, in test [1], inhibition was half-maximal at 25 nM (IC50). The 2-AG accumulation, % of vehicle control at 1 µM on MGL amounted to 325%.
As for `O=C(c1ccc(S(=O)(=O)c2cccc(Cl)c2)cc1)N1CC(N2CCN(C(=O)c3nccs3)CC2)C1` [Cpd 876], in test [1], the 50% inhibitory concentration (IC50) is below 5 nM. Further, the 2-AG accumulation, % of vehicle control at 1 µM on MGL is 363%.
`O=C(c1ccc2c(-c3ccc(C(F)(F)F)cc3)ncnc2c1)N1CC(N2CCN(C(=O)c3nccs3)CC2)C1` [Cpd 1086] showed an IC50 in test [1] of 9 nM. For the same compound, at MGL, the 2-AG accumulation, % of vehicle control at 1 µM stood at 488%.
For the compound `O=C(c1ccc2c(c1)CCN(Cc1ccc(C(F)(F)F)cc1)C2)N1CC(N2CCN(C(=O)c3nccs3)CC2)C1` [Cpd 880], the concentration for half-maximal inhibition (IC50) in test [1] is below 5 nM. Besides, the 2-AG accumulation, % of vehicle control at 1 µM on MGL was determined as 945%.
`O=C(c1ccccc1)N1CCN(C2CN(C(=O)c3ccc(OCc4cccc(Cl)c4Cl)cc3)C2)CC1` [Cpd 381, 1-[1-({4-[(2,3-Dichlorobenzyl)oxy]phenyl}carbonyl)azetidin-3-yl]-4-(phenylcarbonyl)piperazine] came in with a half-inhibitory concentration (IC50) in test [1] below 5 nM. Moreover, at MGL, the 2-AG accumulation, % of vehicle control at 10 µM was determined as 520%.
As to `O=C(c1ccc(-c2ccc(Cl)c(C(F)(F)F)c2)cc1)N1CC(N2CCN(C(=O)c3nccs3)CC2)C1` [Cpd 212, 1-(1-{[4′-Chloro-3′-(trifluoromethyl)biphenyl-4-yl]carbonyl}azetidin-3-yl)-4-(1,3-thiazol-2-ylcarbonyl)piperazine], the IC50 in test [1] is below 5 nM. The 2-AG accumulation, % of vehicle control at 10 µM at MGL was determined as 831%.
As to `O=C(c1ccc(-c2ccc(Cl)c(Cl)c2)cc1)N1CC(N2CCN(C(=O)c3nccs3)CC2)C1` [Cpd 175, 1-{1-[(3′,4′-Dichlorobiphenyl-4-yl)carbonyl]azetidin-3-yl}-4-(1,3-thiazol-2-ylcarbonyl)piperazine], in test [1], the half-maximal inhibitory concentration (IC50) is below 5 nM. In addition, the 2-AG accumulation, % of vehicle control at 0.1 µM on MGL (compound 0.1 μM, read-out: Rat Brain 2AG % VehCntrl (%) @ 0.1 μM) came to 330%. For the same compound, the 2-AG accumulation, % of vehicle control at 1 µM on MGL is 706%.
Regarding `O=C(c1ccc2c(c1)Sc1ccccc1O2)N1CC(N2CCN(C(=O)c3nccs3)CC2)C1` [Cpd 886], in test [1], the half-inhibitory concentration (IC50) was below 5 nM. For the same compound, the 2-AG accumulation, % of vehicle control at 1 µM at MGL amounted to 823%.
On to `Cc1c(C(=O)N2CC(N3CCN(C(=O)c4nccs4)CC3)C2)nn(-c2ccc(Cl)cc2Cl)c1-c1ccc(Cl)cc1` [Cpd 1103], for which, in test [1], half-maximal inhibition (IC50) was put at 13 nM. In addition, the 2-AG accumulation, % of vehicle control at 1 µM on MGL was 698%.
For `O=C(c1ccc(Cc2ccc(C(F)(F)F)cc2)cc1)N1CC(N2CCN(C(=O)c3cscn3)CC2)C1` [Cpd 999], in that order: 8 nM and 458%.
`O=C(c1ccc(-c2ccc(F)c(Cl)c2)cc1)N1CC(N2CCN(C(=O)c3cscn3)CC2)C1` [Cpd 227, 1-{1-[(3′-Chloro-4′-fluorobiphenyl-4-yl)carbonyl]azetidin-3-yl}-4-(1,3-thiazol-4-ylcarbonyl)piperazine] yielded an IC50 in test [1] of 7 nM. Further, the 2-AG accumulation, % of vehicle control at 10 µM on MGL worked out at 938%.
The matching figures for `CS(=O)(=O)Nc1cccc(-c2ccc(C(=O)N3CC(N4CCN(C(=O)c5nccs5)CC4)C3)cc2)c1` [Cpd 219, N-[4′-({3-[4-(1,3-Thiazol-2-ylcarbonyl)piperazin-1-yl]azetidin-1-yl}carbonyl)biphenyl-3-yl]methanesulfonamide]: 32 nM and 851%.
In test [1], `O=C(c1ccc2c(-c3ccccc3)ncnc2c1)N1CC(N2CCN(C(=O)c3nccs3)CC2)C1` [Cpd 1130] gave a 50% inhibitory concentration (IC50) of 22 nM. The 2-AG accumulation, % of vehicle control at 1 µM on MGL was determined as 553%.
In the case of `Cn1cc(-c2ccccc2)c2ccc(C(=O)N3CC(N4CCN(C(=O)c5cscn5)CC4)C3)cc21` [Cpd 1155], half-maximal inhibition in test [1] (IC50) was put at 41 nM. Also, the 2-AG accumulation, % of vehicle control at 1 µM on MGL came out at 617%.
`O=C(c1ccccc1)N1CCN(C2CN(C(=O)c3ccc(Oc4cc(C(F)(F)F)ccn4)cc3)C2)CC1` [Cpd 518] came in with an IC50 in test [1] of 1610 nM. In addition, the 2-AG accumulation, % of vehicle control at 1 µM on MGL turned out to be 86%.
The matching figures for `O=C(c1ccc2c(ccn2-c2ccc(F)cc2F)c1)N1CC(N2CCN(C(=O)c3ccc[nH]3)CC2)C1` [Cpd 1061, 1-(2,4-Difluorophenyl)-5-({3-[4-(1H-pyrrol-2-ylcarbonyl)piperazin-1-yl]azetidin-1-yl}carbonyl)-1H-indole]: 6 nM and 618%.
`Cn1cc(-c2ccc(C(F)(F)F)cc2)c2ccc(C(=O)N3CC(N4CCN(C(=O)c5cscn5)CC4)C3)cc21` [Cpd 1148] registered an IC50 in test [1] of 33 nM. Moreover, the 2-AG accumulation, % of vehicle control at 1 µM on MGL worked out at 344%.
Regarding `Cn1cc(-c2ccc(C(F)(F)F)cc2)c2ccc(C(=O)N3CC(N4CCN(C(=O)c5nccs5)CC4)C3)cc21` [Cpd 1347], in test [1], the half-maximal inhibitory concentration (IC50) is below 5 nM. For the same compound, the 2-AG accumulation, % of vehicle control at 1 µM on MGL is 741%.
On to `CS(=O)(=O)c1cccc(-c2ccc(C(=O)N3CC(N4CCN(C(=O)c5nccs5)CC4)C3)cc2)c1` [Cpd 208, 1-(1-{[3′-(Methylsulfonyl)biphenyl-4-yl]carbonyl}azetidin-3-yl)-4-(1,3-thiazol-2-ylcarbonyl)piperazine], for which half-maximal inhibition in test [1] (IC50) was put at 92 nM. Besides, on MGL, the 2-AG accumulation, % of vehicle control at 1 µM was found to be 480% and the 2-AG accumulation, % of vehicle control at 10 µM was found to be 324%.
The compound `O=C(c1ccccc1)N1CCN(C2CN(C(=O)c3ccc(-c4ccccc4OC(F)(F)F)cc3)C2)CC1` [Cpd 196, 1-(Phenylcarbonyl)-4-(1-{[2′-(trifluoromethoxy)biphenyl-4-yl]carbonyl}azetidin-3-yl)piperazine] yielded an IC50 in test [1] of 216 nM. The 2-AG accumulation, % of vehicle control at 10 µM on MGL was determined as 516%.
For `O=C(c1ccc(-c2ccc(Cl)c(Cl)c2)cc1)N1CC(N2CCN(C(=O)c3cscn3)CC2)C1` [Cpd 228, 1-{1-[(3′,4′-Dichlorobiphenyl-4-yl)carbonyl]azetidin-3-yl}-4-(1,3-thiazol-4-ylcarbonyl)piperazine], in that order: below 5 nM and 710%.
`O=C(c1nccs1)N1CC(N2CCN(C(=O)c3ccc(-c4ccccc4)cc3)C(c3ccccc3)C2)C1` (stereo not shown) [Cpd 43, 1-(Biphenyl-4-ylcarbonyl)-2-phenyl-4-[1-(1,3-thiazol-2-ylcarbonyl)azetidin-3-yl]piperazine]: the IC50 in test [1] turned out to be 1260 nM. At MGL, the 2-AG accumulation, % of vehicle control at 10 µM came to 215%.
In turn, `O=C(c1cc(-c2ccccc2)n(-c2ccccc2)n1)N1CC(N2CCN(C(=O)c3nccs3)CC2)C1` [Cpd 1164] returned an IC50 in test [1] of 48 nM. Also, at MGL, the 2-AG accumulation, % of vehicle control at 1 µM was 250%.
For the compound `O=C(c1cccc(C(F)(F)F)c1)N1CCc2cc(C(=O)N3CC(N4CCN(C(=O)c5nccs5)CC4)C3)ccc2C1` [Cpd 679, 6-({3-[4-(1,3-Thiazol-2-ylcarbonyl)piperazin-1-yl]azetidin-1-yl}carbonyl)-2-{[3-(trifluoromethyl)phenyl]carbonyl}-1,2,3,4-tetrahydroisoquinoline], it took 24 nM to reach half-maximal inhibition in test [1] (IC50). Also, at MGL, the 2-AG accumulation, % of vehicle control at 1 µM was determined as 751%.
In test [1], `O=C(c1cccc(-c2ccccc2C(F)(F)F)c1)N1CC(N2CCN(C(=O)c3nccs3)CC2)C1` [Cpd 148, 1-(1,3-Thiazol-2-ylcarbonyl)-4-(1-{[2′-(trifluoromethyl)biphenyl-3-yl]carbonyl}azetidin-3-yl)piperazine] yielded a 50% inhibitory concentration (IC50) below 5 nM. For the same compound, the 2-AG accumulation, % of vehicle control at 10 µM on MGL was 744%.
